Reference: patent US7091033B2, “Array of toxicologically relevant canine genes and uses thereof” (Phase-1 Molecular Toxicology, Inc., priority 2000, dated 2006)

System: canine genes differentially expressed in organs (liver, spleen, kidney, testes, heart, thymus)
Experiment: Transcriptome profiling / differential display of tissues from canines exposed to an agent versus vehicle (reverse transcription, PCR, reamplification of bands, sequencing)
Format: in vivo
[1] = Band # CTP74A, No significant match
[2] = Band # CTP75C, No significant match
[3] = Band # CTP85D, Homo sapiens Rho-assoc XM_008814
[4] = Band # CTP3B, Homo Sapien N-myc dow BC003175, larger band of doublet
[5] = Band # CTP27C, Homo sapiens CTCL turn AF177227

N.N.O=C([O-])C1(C(=O)[O-])CCC1.[Pt+2] [carboplatin]
Expression Pattern (Band # CTP28D, Homo sapiens upstream INM_014517): repressed in carboplatin
Expression Pattern (Band # CTP30E, Homo sapiens BAC clone AC003083): repressed in carboplatin
Expression Pattern (Band # CTP58A, No significant match): repressed with carboplatin
Expression Pattern (Band # CTP60B, Homo sapiens RNA bindii XM_016120): repressed with carbo and trans platin
Expression Pattern (Band # CTP65A, Pig mRNA for endoplasm X16951): repressed with carbo and trans platin
Expression Pattern (Band # CTP71A, Canis familiaris caveolin- U47060): induced with carboplatin
Expression Pattern [1]: repressed with carbo, trans and cisplatin
Expression Pattern [2]: repressed with carbo, trans and cisplatin
Expression Pattern [3]: repressed with carbo, trans and cisplatin
Expression Pattern (Band # CTP122I, Human mRNA for KIAA0(D26067)): repressed with carbo and transplatin
Expression Pattern (Band # CTP178B, Homo sapiens mRNA for AB040957): induced with carboplatin
Expression Pattern (Band # CTP179K, No significant match): induced with carboplatin
Expression Pattern (Band # CTP185C, No significant match): induced with carbo and trans platin
Expression Pattern (Band # CTP197A, No significant match): induced with carboplatin
Expression Pattern (Band # CTP201B, Homo sapiens, exostoses BC001174): induced with carboplatin
Expression Pattern (Band # CTP202C, No significant match): induced with carboplatin
Expression Pattern (Band # CTP205D, Homo sapiens similar to XM_011187): induced with carboplatin
Expression Pattern (Band # CTP206A, Homo sapiens fatty acid c NM_013402): repressed with carbo and transplatin
Expression Pattern (dog, in vivo): repressed with carbo and trans platin

COc1cc([C@@H]2c3cc4c(cc3[C@@H](O[C@@H]3O[C@@H]5CO[C@@H](C)O[C@H]5[C@H](O)[C@H]3O)[C@H]3COC(=O)[C@H]23)OCO4)cc(OC)c1O [etoposide]
Expression Pattern [4]: doublet-larger band is upregulated
Expression Pattern [5]: repressed with etoposide and aspirin
Expression Pattern (Band # CTP37A, Homo sapiens nuclear fax AF167569): repressed with etoposide
Expression Pattern (Band # CTP143B, No significant match): induced with etoposide and caffeine
Expression Pattern (Band # CTP150A, No significant match): repressed with etoposide
Expression Pattern (Band # CTP150C, Canis familiaris mitochon CFU96639): repressed with etoposide
Expression Pattern (Band # CTP156J, Human DNA sequence fn AL136120): induced with etoposide and caffeine
Expression Pattern (Band # CTP216A, Canis familiaris heat-shoc U19368): repressed with etoposide

N.N.[Cl][Pt][Cl] [cisplatin]
Expression Pattern (Band # CTP31A, No significant match): upregulated in cisplatin
Expression Pattern (Band # CTP41B, Homo sapiens mRNA for AB037813): repressed in cisplatin
Expression Pattern (Band # CTP47G, No significant match): induced with cisplatin
Expression Pattern (Band # CTP50A, No significant match): induced with cisplatin
Expression Pattern (Band # CTP51A, Homo sapiens intestinal 1 AF219991): induced with cisplatin
Expression Pattern (Band # CTP52B, No significant match): induced with cisplatin
Expression Pattern (Band # CTP53A, No significant match): induced with cisplatin
Expression Pattern (Band # CTP59A, Homo sapiens cyclin D2 (XM_012143)): induced with cisplatin
Expression Pattern (Band # CTP62A, No significant match): induced with cisplatin
Expression Pattern (Band # CTP63A, No significant match): induced with cisplatin
Expression Pattern (Band # CTP64B, No significant match): induced with cisplatin
Expression Pattern (Band # CTP67A, clone RP5-1071L10 on cl AL133228): repressed with cisplatin
Expression Pattern (Band # CTP68F, Oryctolagus cuniculus Ne U09823): repressed with cisplatin
Expression Pattern (Band # CTP70A, No significant match): repressed with cisplatin
Expression Pattern (Band # CTP72B, No significant match): repressed with cisplatin
Expression Pattern (Band # CTP73A, Homo sapiens chromosor AC026201): repressed with cisplatin
Expression Pattern (Band # CTP73B, No significant match): repressed with cisplatin
Expression Pattern [1]: repressed with carbo, trans and cisplatin
Expression Pattern [2]: repressed with carbo, trans and cisplatin
Expression Pattern (Band # CTP76B, No significant match): induced with cisplatin
Expression Pattern (Band # CTP77D, No significant match): repressed with cisplatin
Expression Pattern (Band # CTP78B, Homo sapiens SON DNA XM_009738): induced with cisplatin
Expression Pattern (Band # CTP79B, No significant match): induced with cisplatin
Expression Pattern (Band # CTP80A, Homo sapiens WDR4 ger AB039887): repressed with cisplatin
Expression Pattern (Band # CTP81A, No significant match): induced with cisplatin
Expression Pattern [3]: repressed with carbo, trans and cisplatin
Expression Pattern (Band # CTP86F, Homo sapiens chromodoi NM_001272): induced with cisplatin
Expression Pattern (Band # CTP87B, Homo sapiens tetratricopi XM_009760): induced with cisplatin
Expression Pattern (Band # CTP88A, Rattus norvegicus ribosor NM_022506): repressed with cisplatin
Expression Pattern (Band # CTP89B, Homo sapiens genomic [AP003473): induced with cisplatin
Expression Pattern (Band # CTP90A, Homo sapiens clone 248(AF070622)): induced with cisplatin
Expression Pattern (Band # CTP92A, No significant match): induced with cisplatin
Expression Pattern (Band # CTP92C, Human DNA sequence fn AL133286): induced with cisplatin
Expression Pattern (Band # CTP93F, clone RP1-211D12 on ch Z93016): induced with cisplatin
Expression Pattern (Band # CTP94B, Homo sapiens clathrin, h NM_008305): induced with cisplatin
Expression Pattern (Band # CTP99A, No significant match): repressed with cisplatin
Expression Pattern (Band # CTP100A, COX15 (yeast) homolog, BC002382): induced with cisplatin
Expression Pattern (Band # CTP103JJ, No significant match): induced with cisplatin
Expression Pattern (Band # CTP104I, No significant match): repressed with cisplatin
Expression Pattern (Band # CTP109P, No significant match): induced with cisplatin
Expression Pattern (Band # CTP110A, No significant match): induced with cisplatin
Expression Pattern (Band # CTP111A, No significant match): induced with cisplatin
Expression Pattern (Band # CTP112B, Bos taurus peroxiredoxin AF305561): induced with cisplatin
Expression Pattern (Band # CTP113A, Box taurus ribosomal proi AF063243): induced with cisplatin
Expression Pattern (Band # CTP115B, Homo sapiens chromosoi AC005899): induced with cisplatin
Expression Pattern (Band # CTP116A, No significant match): induced with cisplatin
Expression Pattern (Band # CTP117B, Homo sapiens similar to XM_017740): induced with cisplatin
Expression Pattern (Band # CTP119J, H. sapiens SPR-2 mRNA 1X68560 S52): induced with cisplatin
Expression Pattern (Band # CTP121D, Human ribosomal protein U43701): induced with cisplatin
Expression Pattern (Band # CTP124B, No significant match): induced with cisplatin
Expression Pattern (Band # CTP126A, No significant match): induced with cisplatin
Expression Pattern (Band # CTP131B, Homo sapiens similar to s XM_006087): induced with cisplatin
Expression Pattern (Band # CTP133B, No significant match): induced with cisplatin
Expression Pattern (Band # CTP134A, No significant match): induced with cisplatin
Expression Pattern (Band # CTP135A, Homo sapiens cDNA FLJAK021570): induced with cisplatin
Expression Pattern (Band # CTP300B, Homo sapiens utrophin (I-NM_007124)): repressed with cisplatin
Expression Pattern (Band # CTP304B, Homo sapiens unknov XM_002211): induced with cisplatin
Expression Pattern (Band # CTP306B, No significant match): induced with cisplatin
Expression Pattern (Band # CTP308KK, No significant match): induced with cisplatin
Expression Pattern (Band # CTP309A, No significant match): repressed with cisplatin

CC(=O)Oc1ccccc1C(=O)O [aspirin]
Expression Pattern (Band # CTP1D, No significant match): upregulated with Etoposide, caffeine
Expression Pattern (Band # CTP1G, No significant match): upregulated with Etoposide, caffeine
Expression Pattern [4]: doublet-larger band is upregulated
Expression Pattern (Band # CTP25D, No significant match): repressed with caffeine and aspirin
Expression Pattern (Band # CTP26A, Canis familiaris chymase U89607): repressed with caffeine and aspirin
Expression Pattern (Band # CTP26B, H. sapiens cycA gene for X68303): repressed with caffeine and aspirin
Expression Pattern [5]: repressed with etoposide and aspirin
Expression Pattern (Band # CTP32D, cDNA FLJ14795 fls, clone AK027701): repressed with caffeine and aspirin
Expression Pattern (Band # CTP144B, No significant match): repressed with caffeine and aspirin
Expression Pattern (Band # CTP145B, No significant match): repressed with aspirin
Expression Pattern (Band # CTP148B, Homo sapiens serine-thre AF108830): induced with aspirin
Expression Pattern (Band # CTP161B, Canis familiaris TCTA ger AJ012166): induced with aspirin
Expression Pattern (Band # CTP164A, No significant match): induced with aspirin
Expression Pattern (Band # CTP215B, No significant match): induced with aspirin
Expression Pattern (Band # CTP222D, No significant match): induced with aspirin
